Consider one molecule from US4886793A, “Penem derivatives” (Farmitalia Carlo Erba, S.r.l., priority 1986, dated 1989).

Data set [1] in a line: Pharmacokinetics in mouse. Particulars: in vivo. The source says:
(§1) In vivo data for (5R,6S)-6-[(1R)-hydroxy ethyl]-2-[4-(1-pyridinio)methylphenyl]oxymethylpenem-3-carboxylate (example 1, Compound 5,FCE 24386)

In data set [2] the test system is Staphilococcus aureus Smith. In words: Experimental infection in mice, Staphilococcus aureus Smith. Format: in vivo, Staphilococcus aureus Smith (infected mice). Particulars: Mus musculus, intraperitoneal infection, 3 × LD50 challenge, treatments at 30, 90 and 360 minutes after infection. On the procedure: (§2) ^1 Intraperitoneal infection in mice with a 3 × LD50
(§3) challenge; treatments at 30, 90 and 360 minutes after infection.

A short description of another data set: Pharmacokinetics in rat. Particulars: in vivo.
From the text: as §1

The next data set relates to Escherichia coli G II. The data set is described as follows: Experimental infection in mice, Escherichia coli G II. Particulars: intraperitoneal infection, 3 × LD50 challenge, treatments at 30, 90 and 360 minutes after infection. Format: in vivo, Escherichia coli G II (infected mice). On the procedure: as §2, §3

The structures appear in SMILES notation.

`C[C@@H](O)[C@H]1C(=O)N2C(C(=O)[O-])=C(COc3ccc(C[n+]4ccccc4)cc3)S[C@H]12` [Compound 5, (5R,6S)-6-[(1R)-hydroxyethyl]-2-[4-(1-pyridinio)methylphenyl]oxymethylpenem-3-carboxylate]: the Fa in data set [1] (sc, Mouse, s.c., read-out: % Absorption s.c.) amounted to 100%. For the same molecule, the AUC (as a rule, the area under the concentration-time curve, a measure of exposure) in data set [1] (mouse) was 56000 ng·h/mL; in “Pharmacokinetics in rat”, 103000 ng·h/mL. In addition, the half-life in data set [1] (mouse, read-out: t 1/2β) amounted to 27 min; in “Pharmacokinetics in rat” (read-out: t 1/2β), 28 min. Further, the ED50 (commonly the midpoint of the dose-response relation) was less than 0.032 mg/kg in data set [2] and 1.55 mg/kg in the data set on Escherichia coli G II.
